The text below walks through data of patent US11077206B2, “Composition for gene therapy or transfection, and preparation method and use thereof” (SHANGHAI CHANGZHENG HOSPITAL, priority 2017, dated 2021).

In this data set the test system is Hela-luci cells. Briefly: cytotoxicity in Hela-luci cells by MTT method. Type of data set: cell-based. The following applies: 24 hours, siRNA (and cationic polymer where named) at transfection concentration, EGCG dose well above the transfection dose. Here is the method: (§1) A method for studying the cytotoxicity of the natural polyphenol EGCG in the present invention comprises steps of: incubating Hela-luci cells in a 96-well plate at a cell density of 10^4 cells/well, removing a medium after incubation for 12 hours, and adding 100 μl fresh medium containing the siRNA whose concentration is the same as transfection concentration and a certain amount of EGCG, where the concentration of EGCG is from low to high (comprising the transfection concentration), and a final concentration is much higher than the transfection concentration; culturing for 24 hours, and measuring cytotoxicity by a MTT method.
as §1, with “polyphenol EGCG and cationic polymer LPEI in the” for “polyphenol EGCG in the”, “the siRNA and LPEI whose concentration” for “the siRNA whose concentration”, “MTT method. […]” for “MTT method.”
In general terms: Tetrazolium assays rely on reduction of a dye to a coloured formazan, in cell work by metabolically active cells.

As for `O=C(O[C@@H]1Cc2c(O)cc(O)cc2O[C@@H]1c1cc(O)c(O)c(O)c1)c1cc(O)c(O)c(O)c1` [EGCG], the cell viability result is given as “more than 90%”.
